This assay concerns the target T1, AC2aCel5A (Bacteroidetes bacterium AC2a, UniProt A0A076MPD7, E189A).
T1 construct: signal peptide (residues 1-18) removed; mature 397 residues + C-terminal eight-residue His6-tag (405 residues), tag kept; synthetic gene, pNIC-CH, Escherichia coli
The assay can be described thus: X-ray crystal structure (co-crystallization with […] cellotetraose). The class given is binding. The following applies: 2.4 Å; subsites -3 to -1, molecule A only; crystals from 0.2 M potassium nitrate, 20% w/v PEG 3350; catalytically inactive mutant; authors consider that bound ligand is likely cellotetraose with fourt.

T1 sequence (A0A076MPD7 entry or part of it E189A): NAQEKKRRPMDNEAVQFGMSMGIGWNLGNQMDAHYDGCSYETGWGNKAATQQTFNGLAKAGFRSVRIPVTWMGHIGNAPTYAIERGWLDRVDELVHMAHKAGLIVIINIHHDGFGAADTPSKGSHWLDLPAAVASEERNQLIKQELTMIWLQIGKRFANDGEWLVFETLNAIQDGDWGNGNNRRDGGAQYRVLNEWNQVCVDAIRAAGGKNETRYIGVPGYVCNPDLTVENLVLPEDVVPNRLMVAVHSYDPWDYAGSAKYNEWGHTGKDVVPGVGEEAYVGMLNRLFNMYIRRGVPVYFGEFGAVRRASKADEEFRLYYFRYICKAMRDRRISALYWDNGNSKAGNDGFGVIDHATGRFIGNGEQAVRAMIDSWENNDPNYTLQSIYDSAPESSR

Consider `OC[C@H]1O[C@@H](O[C@H]2[C@H](O)[C@@H](O)[C@H](O[C@H]3[C@H](O)[C@@H](O)C(O)O[C@@H]3CO)O[C@@H]2CO)[C@H](O)[C@@H](O)[C@@H]1O` (stereo partly shown) [cellotriose], for which the “X-ray crystal structure (co-crystallization with 5 mM cellotetraose)” value was “Additional electron density was observed in the active-site cleft of molecule A, and was refined”.

The values are drawn from PMC4488959, “Structural Features of a Bacteroidetes-Affiliated Cellulase Linked with a Polysaccharide Utilization Locus” (Scientific Reports, 2015).
